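Each compound was tested at five concentrations against cells in 96-well plates for 48 hours. Abbreviation: GI50, concentration required for 50% inhibition of growth. At the TGI there is no net growth.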
System: MDA-MB-468 breast
Test: NCI anticancer screen, dose series, 48 h

Compound | GI50 | TGI
Cn1cnc([N+](=O)[O-])c1S(=O)(=O)Oc1ccc(Cl)cc1 | 1.74 µM | 3.7 µM
O=C(Nc1ccc(I)cc1F)c1cc(Br)ccc1O | 0.401 µM | 2.33 µM
Clc1cc(Br)ccc1-c1ccc(CNCC2CCNCC2)o1 | 1.71 µM | 3.41 µM
COc1ccc(Nc2ncc(I)c(NCCCNC(=O)C3CCC3)n2)cc1 | 11.9 µM | 38.6 µM
COc1ccc(Sc2[nH]c(C=O)c3ccccc23)cc1 | 1.42 µM | 24.3 µM
CC(C)CCN(CCC(C)C)CC(=O)Nc1ccc(S(=O)(=O)c2ccc(NC(=O)CN(CCC(C)C)CCC(C)C)cc2)cc1 | 2.39 µM | 7.52 µM
CCn1nc(C2CCN(C(=O)CCO)CC2)nc1-c1cnc(N)c(-c2nnc(C(C)(C)C)o2)n1 | 1.28 µM | 16.1 µM
COc1cc(OC)c(C(=O)/C=C/c2ccc(C#N)cc2)c(OC)c1 | 1.17 µM | 3.48 µM
O=C1CN=C(c2ccc[nH]2)c2cc(Cl)ccc2N1 | > 100 µM | > 100 µM
CCCCCCCCCCCCCCCCn1cc[n+](C)c1 | 0.092 µM | 0.431 µM
COc1cc2c(cc1OC)[C@@H]1C(=O)c3ccc4c(c3O[C@@H]1CO2)C[C@H](C(C)C)O4 | < 0.0181 µM | 0.867 µM
Cc1cccc2c(=O)c3c(sc12)c(NCCCNCCO)nc1ccccc13 | 1.47 µM | 3.04 µM
CCCCN(CCCC)P(=O)(Oc1ccccc1)Oc1ccccc1 | 3.03 µM | 11.7 µM
CC(C)[C@@]12C[C@@H](OC(=O)C3CO3)[C@@](C)(O1)[C@@H]1CC[C@@H](C)[C@H]1[C@@H]2OC(=O)/C=C/c1ccccc1 (stereo not given in full) | 16.9 µM | 34.8 µM
CCN1/C(=C/C(C)=C/c2sc3ccc4ccccc4c3[n+]2CC)Sc2ccc3ccccc3c21 | 0.0156 µM | 0.156 µM
CCOC(=O)c1ccc(N2NC(=O)/C(=C/c3ccc([N+](=O)[O-])o3)C2=O)cc1 | 6.69 µM | 14.5 µM
C#CCNC1CCC(c2csc(C#C)n2)=C1C (stereo not given) | 3.17 µM | 18.8 µM
OCc1ccc(-c2nc(-c3ccc4c(c3)OCO4)c(-c3ccccn3)[nH]2)cc1 | > 25 µM | > 25 µM
CCc1cc2c(c(OCC(F)(F)F)c(C(=O)NC3CCN(C(=O)CO)CC3)n2C)c(=O)n1CC(=O)c1ccccc1 | 70.6 µM | > 100 µM
NC(=O)c1cn(C2CC(O)C(CO)O2)c2ncnc(N)c12 (stereo not given) | 0.486 µM | 3.77 µM
Cc1[nH]c(C(=O)Nc2ccc(C(=O)NCCN)cc2OC(C)C)c(Cl)c1Cl | 1.91 µM | 3.67 µM
Cc1[nH]c2ccccc2c1CO | 19.4 µM | 41.4 µM
c1cc(OCCN2CCCC2)ccc1CNc1ccc2nc(CCC3CCCCC3)[nH]c2c1 | 1.47 µM | 3.63 µM

Compound | GI50 | TGI
CCCN(CCC)c1ccc(/C=N/NC(=O)c2cccnc2)c(C)c1 | 2.95 µM | 15.1 µM
COc1cccc2c1C(=O)c1c(O)c3c(c(O)c1C2=O)C[C@](O)(C(=O)CO)C[C@H]3O[C@@H]1C[C@@H](NC(=O)CCCN(C)C2(c3ccc(F)cc3)CC3CCC2C3)[C@H](O)[C@@H](C)O1 (stereo not given in full) | 0.879 µM | 1.73 µM
COC(=O)CCc1n(Cc2ccc3ccccc3c2)c2ccccc2[n+]1Cc1ccc2ccccc2c1 | 0.196 µM | 1.13 µM
Cc1ccc(-c2cc(C(=O)Nc3ccc(S(=O)(=O)N4CCCCC4)cc3)[nH]n2)c(O)c1 | > 100 µM | > 100 µM
CCCCCN(CCCCC)CCC[C@@H](C)[C@H]1CC[C@H]2[C@@H]3[C@H](OCCCN)C[C@@H]4C[C@H](OCCCN)CC[C@]4(C)[C@H]3C[C@H](OCCCN)[C@]12C | 13 µM | 29.8 µM
CCOc1ccccc1/C=N\N=C(N/N=C/c1ccccc1OCC)N/N=C/c1ccccc1OCC | 1.54 µM | 7.16 µM
O=C(COc1ccccc1)NNc1ccccc1 | > 300 µM | > 300 µM
Clc1ccc(-c2cnc3c(-c4ccnc(N5CCNCC5)c4)cnn3c2)cc1 | 1.54 µM | 2.99 µM
CCOC(=O)c1c(NN2CCN(CC(F)(F)F)CC2)oc(/C=C2\C=Nc3ncccc32)c1O | 3.01 µM | 12 µM
CCCCCCOC(=O)CC1=C(C)/C(=C/c2[nH]c(-c3ccc[nH]3)cc2OC)N=C1C | 0.155 µM | 1.43 µM
COc1cccc(/C=N\NC(=O)c2ccncc2)c1O | 2.32 µM | 11.2 µM
COC(=O)[C@H](Cc1cn(C)cn1)NC(=O)[C@H](CC(C)C)NC(=O)Nc1cc(C(F)(F)F)cc(C(F)(F)F)c1 | 3.71 µM | > 10 µM
Cc1nnn(C)c1-c1cnc2c3ccc(C(C)(C)O)cc3n([C@H](c3ccccc3)C3CCOCC3)c2c1 | < 0.01 µM | 8.91 µM
COc1cc(CSc2nc3ccc(Cl)cc3c(=O)n2Cc2ccccc2)cc(OC)c1OC | 1.07 µM | 4.03 µM
CCCCCSc1ccc2nc(NC(=O)OCC)sc2c1 | 0.564 µM | 14.8 µM
COc1ccc(C2c3ccc4ccccc4c3Oc3ncn(CCCn4ccnc4)c(=N)c32)cc1OC (stereo not given) | 2.12 µM | 5.45 µM
COc1ccc(C(=O)/C=C/c2cc(-c3ccc(OC)c(OC)c3)n[nH]2)cc1OC | 1.09 µM | 2.56 µM
COc1ccc(C)c2sc(N(Cc3cccnc3)C(=O)c3ccc(C#N)cc3)nc12 | 35 µM | > 100 µM
CC(C)(C)c1cc(C[P+](c2ccccc2)(c2ccccc2)c2ccccc2)cc(C(C)(C)C)c1O | 0.216 µM | 0.771 µM
O=C1OC2(c3ccc(O)cc3Oc3cc(O)ccc32)c2cccc3cccc1c23 | 16.1 µM | 34.3 µM
COC(=O)c1c2c(c(C)[n+]([O-])c1C)C(=O)C(NCc1ccccc1)=CC2=O | 1.3 µM | 3.15 µM
Cc1ncc(C(=O)Nc2ccc(CN3CCN(C)CC3)c(C(F)(F)F)c2)cc1C#Cc1cnc(N)c2ccc(C#N)cc12 | 0.0613 µM | 5.13 µM

Reference: PubChem BioAssay (NCI)
